Measured values: ChEMBL document CHEMBL1201862, “PubChem BioAssay data set” (2004)
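Assay format: 96-well plates, 48-hour exposure. GI50 = concentration required for 50% inhibition of growth.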 The source made the active and inactive calls. No stated cut-off is given here; in the data, active = GI50 up to about 1.1 µM and inactive = higher.

Assays:
Experiment in all cases: inhibition of tumour cell growth, NCI panel, 48 h
KM12 = system: KM12
UO-31 = system: UO-31
SNB-19 = system: SNB-19
786-0 = system: 786-0
SNB-75 = system: SNB-75
CAKI-1 = system: CAKI-1
HCT-116 = system: HCT-116
LOX IMVI = system: LOX IMVI
A549 = system: A549
EKVX = system: EKVX
A498 = system: A498
K562 = system: K562
HOP-62 = system: HOP-62
M14 = system: M14
SF-295 = system: SF-295
CCRF-CEM = system: CCRF-CEM
SN12C = system: SN12C
OVCAR-4 = system: OVCAR-4
T47D = system: T47D

Structure (SMILES)	GI50 (KM12)	GI50 (UO-31)	GI50 (SNB-19)	GI50 (786-0)	GI50 (SNB-75)	GI50 (CAKI-1)	GI50 (HCT-116)	GI50 (LOX IMVI)	GI50 (A549)	GI50 (EKVX)	GI50 (A498)	GI50 (K562)	GI50 (HOP-62)	GI50 (M14)	GI50 (SF-295)	GI50 (CCRF-CEM)	GI50 (SN12C)	GI50 (OVCAR-4)	GI50 (T47D)
CC(=O)OC12COC1CC(O)C1(C)C(=O)C(O)C3=C(C)C(O)CC(O)(C(OC(=O)c4ccccc4)C21)C3(C)C (configuration not stated)	0.839 µM (active)	67.1 µM (inactive)	5.31 µM (inactive)	13.4 µM (inactive)	1.75 µM (inactive)	> 96.2 µM (inactive)	1.67 µM (inactive)	1.82 µM (inactive)	7.33 µM (inactive)	> 86.5 µM (inactive)	> 100 µM (inactive)	1.58 µM (inactive)	16.6 µM (inactive)	5.94 µM (inactive)	26.3 µM (inactive)	3.8 µM (inactive)	4.94 µM (inactive)	> 100 µM (inactive)	
COC(=O)[C@@H]1C[C@@H]2c3ccccc3N(S(=O)(=O)c3ccccc3)[C@@H]2N1C(=O)OC	> 100 µM (inactive)	> 100 µM (inactive)	> 100 µM (inactive)	> 100 µM (inactive)	> 100 µM (inactive)	> 100 µM (inactive)	> 100 µM (inactive)	> 100 µM (inactive)	> 100 µM (inactive)	> 100 µM (inactive)		> 100 µM (inactive)	> 100 µM (inactive)		> 100 µM (inactive)	> 100 µM (inactive)	> 100 µM (inactive)	> 100 µM (inactive)	
CCOC(=O)C1(Br)S(=O)(=O)OCCOS1(=O)=O		> 100 µM (inactive)	> 100 µM (inactive)	> 100 µM (inactive)	> 100 µM (inactive)		> 100 µM (inactive)	> 100 µM (inactive)	> 100 µM (inactive)	> 100 µM (inactive)	> 100 µM (inactive)	> 100 µM (inactive)	> 100 µM (inactive)	> 100 µM (inactive)	> 100 µM (inactive)	> 100 µM (inactive)	> 100 µM (inactive)	> 100 µM (inactive)	
CCOC(=O)C1=C(Nc2ccc(Cl)cc2Cl)OCC1=O	> 100 µM (inactive)	> 100 µM (inactive)	> 100 µM (inactive)	> 100 µM (inactive)	> 100 µM (inactive)	> 100 µM (inactive)	> 100 µM (inactive)	> 100 µM (inactive)	> 100 µM (inactive)			> 100 µM (inactive)	> 100 µM (inactive)	> 100 µM (inactive)	> 100 µM (inactive)		> 100 µM (inactive)	> 100 µM (inactive)	
CC1CCCC2(O1)OC1CC(=O)OC1C1=C2C(=O)c2ccccc2C1=O (configuration not stated)	12.1 µM (inactive)	2.13 µM (inactive)	15.6 µM (inactive)	2.14 µM (inactive)	11.2 µM (inactive)	2.84 µM (inactive)		2.64 µM (inactive)	16.9 µM (inactive)	3.87 µM (inactive)	17.7 µM (inactive)	0.63 µM (active)	16.4 µM (inactive)	2.79 µM (inactive)	17.6 µM (inactive)	1.57 µM (inactive)	2.18 µM (inactive)	1.86 µM (inactive)	
O=C(NNC(=S)Nc1cccc(Cl)c1)c1cc(-c2ccccc2)nc2ccccc12	18.5 µM (inactive)	15.1 µM (inactive)	17 µM (inactive)	17.1 µM (inactive)	23.8 µM (inactive)	19.3 µM (inactive)	15.4 µM (inactive)		16.3 µM (inactive)			20.7 µM (inactive)	16.3 µM (inactive)	17.5 µM (inactive)	11.7 µM (inactive)	10.2 µM (inactive)	14.7 µM (inactive)	14.3 µM (inactive)	14.9 µM (inactive)
C/C=C/C(=O)[C@@H](O)C(C)C	> 100 µM (inactive)	> 100 µM (inactive)	> 100 µM (inactive)	> 100 µM (inactive)	> 100 µM (inactive)	> 100 µM (inactive)	> 100 µM (inactive)		> 100 µM (inactive)	> 100 µM (inactive)		> 100 µM (inactive)			> 100 µM (inactive)		> 100 µM (inactive)	> 100 µM (inactive)	
O=C(O)C12CC3CC(CC(F)(C3)C1)C2	> 100 µM (inactive)	> 100 µM (inactive)		> 100 µM (inactive)	65.5 µM (inactive)		> 100 µM (inactive)	> 100 µM (inactive)	> 100 µM (inactive)	> 100 µM (inactive)	> 100 µM (inactive)	> 100 µM (inactive)	> 100 µM (inactive)	> 100 µM (inactive)		> 100 µM (inactive)			
CCc1n[nH]c(=O)n1NC(=O)c1ccccc1C(=O)O	> 100 µM (inactive)	> 100 µM (inactive)	> 100 µM (inactive)	> 100 µM (inactive)	> 100 µM (inactive)		> 100 µM (inactive)	> 100 µM (inactive)	> 100 µM (inactive)	> 100 µM (inactive)		> 100 µM (inactive)	> 100 µM (inactive)	> 100 µM (inactive)	> 100 µM (inactive)	> 100 µM (inactive)	> 100 µM (inactive)	> 100 µM (inactive)	
O=C(Nc1ccc([As](=O)(O)O)cc1)Nc1cccc(Cl)c1Cl	> 100 µM (inactive)	40.6 µM (inactive)	86.1 µM (inactive)	46.1 µM (inactive)	21.7 µM (inactive)	> 100 µM (inactive)	> 100 µM (inactive)	> 100 µM (inactive)	> 100 µM (inactive)	79.8 µM (inactive)	> 100 µM (inactive)	97.5 µM (inactive)	70 µM (inactive)	> 100 µM (inactive)	65.5 µM (inactive)		> 100 µM (inactive)	18.7 µM (inactive)	
O=C(OC1C#CCSCC#C/C=C\1)c1cnc2ccccc2n1 (configuration not stated)		> 100 µM (inactive)	> 100 µM (inactive)	0.461 µM (active)	> 100 µM (inactive)		> 100 µM (inactive)	> 100 µM (inactive)		> 100 µM (inactive)	40 µM (inactive)	19.7 µM (inactive)	> 100 µM (inactive)	> 100 µM (inactive)	> 100 µM (inactive)	53.6 µM (inactive)	> 100 µM (inactive)	> 100 µM (inactive)	
C/N=c1/ss/c(=N\C(SC)=[N+](C)C)n1C.[O-][Cl+3]([O-])([O-])[O-]	> 100 µM (inactive)	> 100 µM (inactive)	> 100 µM (inactive)	> 100 µM (inactive)		54.8 µM (inactive)	> 100 µM (inactive)	> 100 µM (inactive)	> 100 µM (inactive)	80.7 µM (inactive)		17.3 µM (inactive)	> 100 µM (inactive)	> 100 µM (inactive)	> 100 µM (inactive)	3.97 µM (inactive)	> 100 µM (inactive)		
Nc1nc(N)c2cc(S(=O)(=O)c3ccc4ccccc4c3)ccc2n1	9.95 µM (inactive)	2.04 µM (inactive)	6.03 µM (inactive)	3.66 µM (inactive)	2.86 µM (inactive)	4.83 µM (inactive)	0.495 µM (active)	0.766 µM (active)	0.718 µM (active)	8.13 µM (inactive)		0.541 µM (active)	4.63 µM (inactive)		1.55 µM (inactive)		7.69 µM (inactive)		1.46 µM (inactive)
